Laboratory results: US20100028839A1, “METHODS AND SYSTEMS FOR EVALUATING MEMORY AGENTS” (priority 2008, published 2010)
Where “and” joins values, the source holds several entries; their conditions need not be identical. Equal values may be shown once.

Tests used:
[1] = tested on: aged male macaques; assay: Observation of behavioral or physical side effects during the DL LTR study; assay type: in vivo; details: any dose given (1, 10, 100 mg/kg p.o. daily)
Description: (§1) The study was conducted using 6 aged male macaques (age approximately 22 years at onset of the study which is equivalent to approximately 66 human years) previously trained to performed certain memory tasks. Assessments of memory performance used the CANTAB system (the Cambridge Neuropsychological Test Automated Battery) and a new task.
(§2) All drugs were administered orally in marshmallow while the animal was in a specially designed testing cage. Vehicle was marshmallow alone.
(§3) Treatments were administered sequentially starting with treatment 1. Each treatment (dose of HT-0712 or vehicle) was administered once per day for 4 days before behavioral training began and then continued at 1 treatment (dose of HT-0712 or vehicle) per day, delivered four hours before testing, for the duration of the training period. When each individual animal reached performance criterion of at least 85% correct responses during a daily session, training and dosing ceased for seven days. Then, on post-criterion day 8, animals were tested again on the DL LTR task (retention testing).
Data from this non-responder were removed from the statistical analysis.

[2] = tested on: aged male macaques; assay: Discrimination Learning - Long Term Retrieval task (DL LTR); assay type: in vivo; details: for RT 1-14 (retention test trials 1 to 14), mean / RT 15-28 (retention test trials 15 to 28), mean / retention test, mean / RT overall / RT trials 1-14 / RT trials 15-28: day 8 post-criterion; for RT overall / RT trials 1-14 / RT trials 15-28: raw data of individual animals; for C value / Days to C: raw data of individual animals (Old-1, -2, -5, -7, -8, -9)
Description: as §1
In this task, animals are presented with 2 pairs of stimuli (e.g. 1 pair of shapes and 1 pair of lines) over the course of a daily test session. For each pair of stimuli, one stimulus is arbitrarily designated as the positive stimulus (i.e., touch of that stimulus is rewarded). Each pair of stimuli is presented 14 times during a daily session that consists of 28 trials. The pairs of stimuli (shapes or lines) are presented in a pseudo randomized fashion during each session. Animals have to touch the “positive” shape or line in order to receive a sugar pellet reward accompanied by a pleasant tone. Touching the alternative shape or line results in a negative tone, no sugar pellet and a time out. Animals are tested daily until they reach a performance criterion of 85% correct responses during a daily session. When this criterion is reached, animals receive no further testing for the next 7 days. On day 8 post-criterion, animals are tested again using the same pairs of stimuli that they have seen previously learned in order to assess long term retrieval of the learned discriminations.
as §2, §3
The percent correct responses on the total number of daily trials were recorded as well as the number of days needed to reach the criterion (at least 85% correct responses in a single test session). The percent correct responses on the retention trial was recorded for the entire retention trial session and sub-analyzed for performance differences on trials 1-14 versus trials 15-28.
Data from vehicle trials were compared to data from drug trials using a one way ANOVA. Post hoc comparisons were made using the Bonferroni t-test.

[3] = tested on: aged rats; details: treatment of aged rats; cited from earlier work
[4] = 1 mg/kg p.o. daily, excluding NHP old-9 (N=5), mean±s.e.m.
[5] = 1 mg/kg p.o. daily, including NHP old-9 (N=6)
[6] = 1 mg/kg p.o. daily, entire study group including NHP old-9 (N=6)
[7] = 1 mg/kg p.o. daily, excluding non-responder NHP old-9 (N=5), mean±s.e.m.
[8] = 10 mg/kg p.o. daily, excluding NHP old-9 (N=5), mean±s.e.m.
[9] = 10 mg/kg p.o. daily, including NHP old-9 (N=6)
[10] = 10 mg/kg p.o. daily, entire study group including NHP old-9 (N=6)
[11] = 10 mg/kg p.o. daily, excluding non-responder NHP old-9 (N=5), mean±s.e.m.
[12] = 100 mg/kg p.o. daily, excluding NHP old-9 (N=5), mean±s.e.m.
[13] = 100 mg/kg p.o. daily, including NHP old-9 (N=6)
[14] = 100 mg/kg p.o. daily, entire study group including NHP old-9 (N=6)
[15] = 100 mg/kg p.o. daily, excluding non-responder NHP old-9 (N=5), mean±s.e.m.

COc1ccc([C@H]2CNC(=O)[C@H](Cc3cccc(C)c3)C2)cc1OC1CCCC1 [HT-0712]
behavioral or physical side effects [1]: no noticeable behavioral or physical side effects | RT 1-14 (retention test trials 1 to 14), mean [2, 4]: 80.2±6.2 % correct responses and 80.200 % correct responses | RT 15-28 (retention test trials 15 to 28), mean [2, 4]: 91.6±3.4 % correct responses and 91.600 % correct responses | retention test, mean [2, 4]: 85.8±4.6 % correct responses and 85.800 % correct responses | RT 1-14 (retention test trials 1 to 14), mean [2, 5]: 77.500 % correct responses | RT 15-28 (retention test trials 15 to 28), mean [2, 5]: 88.167 % correct responses | retention test, mean [2, 5]: 82.833 % correct responses | RT overall ([2]; 1 mg/kg p.o. daily): 89.00 % correct responses and 68.00 % correct responses (2×) and 93.00 % correct responses (2×) and 86.00 % correct responses | RT trials 1-14 ([2]; 1 mg/kg p.o. daily): 86.00 % correct responses (2×) and 64.00 % correct responses and 93.00 % correct responses and 79.00 % correct responses and 57.00 % correct responses | RT trials 15-28 ([2]; 1 mg/kg p.o. daily): 93.00 % correct responses (3×) and 71.00 % correct responses and 100.00 % correct responses and 79.00 % correct responses | C value (criterion value reached), mean [2, 6]: 91.000 % correct responses | day to C (days to reach criterion), mean [2, 6]: 12.667 days | C value (criterion value reached), mean [2, 7]: 91.4±1.8 % correct responses and 91.400 % correct responses | day to C (days to reach criterion), mean [2, 7]: 12.0 ± 3.6 days and 12.000 days | C value ([2]; 1 mg/kg p.o. daily): 96.00 % correct responses and 89.00 % correct responses (2×) and 86.00 % correct responses and 93.00 % correct responses (2×) | Days to C ([2]; 1 mg/kg p.o. daily): 4 days and 17 days and 15 days and 3 days and 21 days and 16 days | RT 1-14 (retention test trials 1 to 14), mean [2, 8]: 71.4±3.4 % correct and 71.400 % correct | RT 15-28 (retention test trials 15 to 28), mean [2, 8]: 87.2±4.8 % correct and 87.200 % correct | retention test, mean [2, 8]: 79.2±3.5 % correct responses and 79.200 % correct responses | RT 1-14 (retention test trials 1 to 14), mean [2, 9]: 73.833 % correct responses | RT 15-28 (retention test trials 15 to 28), mean [2, 9]: 87.000 % correct responses | retention test, mean [2, 9]: 80.333 % correct responses | RT overall ([2]; 10 mg/kg p.o. daily): 89.00 % correct responses and 86.00 % correct responses (2×) and 75.00 % correct responses (2×) and 71.00 % correct responses | RT trials 1-14 ([2]; 10 mg/kg p.o. daily): 79.00 % correct responses (2×) and 86.00 % correct responses and 64.00 % correct responses (2×) and 71.00 % correct responses | RT trials 15-28 ([2]; 10 mg/kg p.o. daily): 100.00 % correct responses and 86.00 % correct responses (3×) and 71.00 % correct responses and 93.00 % correct responses | C value (criterion value reached), mean [2, 10]: 89.333 % correct responses | day to C (days to reach criterion), mean [2, 10]: 14.000 days | C value (criterion value reached), mean [2, 11]: 90.0±2.6 % correct responses and 90.000 % correct responses | day to C (days to reach criterion), mean [2, 11]: 11.8 ± 2.3 days and 11.800 days | C value ([2]; 10 mg/kg p.o. daily): 89.00 % correct responses (2×) and 86.00 % correct responses (3×) and 100.00 % correct responses | Days to C ([2]; 10 mg/kg p.o. daily): 18 days and 9 days and 5 days and 12 days and 15 days and 25 days | RT 1-14 (retention test trials 1 to 14), mean [2, 12]: 58.4±4.1 % correct and 58.400 % correct | RT 15-28 (retention test trials 15 to 28), mean [2, 12]: 71.4±6.1 % correct and 71.400 % correct | retention test, mean [2, 12]: 65.0±3.5 % correct responses and 65.000 % correct responses | RT 1-14 (retention test trials 1 to 14), mean [2, 13]: 59.333 % correct responses | RT 15-28 (retention test trials 15 to 28), mean [2, 13]: 72.667 % correct responses | retention test, mean [2, 13]: 66.000 % correct responses | RT overall ([2]; 100 mg/kg p.o. daily): 75.00 % correct responses and 71.00 % correct responses and 57.00 % correct responses (2×) and 68.00 % correct responses (2×) | RT trials 1-14 ([2]; 100 mg/kg p.o. daily): 64.00 % correct responses (2×) and 50.00 % correct responses (2×) and 57.00 % correct responses and 71.00 % correct responses | RT trials 15-28 ([2]; 100 mg/kg p.o. daily): 86.00 % correct responses (2×) and 79.00 % correct responses and 64.00 % correct responses (2×) and 57.00 % correct responses | C value (criterion value reached), mean [2, 14]: 86.333 % correct responses | day to C (days to reach criterion), mean [2, 14]: 10.333 days | C value (criterion value reached), mean [2, 15]: 86.4±0.7 % correct responses and 86.400 % correct responses | day to C (days to reach criterion), mean [2, 15]: 9.0 ± 2.8 days and 9.000 days | C value ([2]; 100 mg/kg p.o. daily): 85.00 % correct responses and 86.00 % correct responses (4×) and 89.00 % correct responses | Days to C ([2]; 100 mg/kg p.o. daily): 11 days and 3 days and 10 days and 18 days and 17 days | animals with improved memory performance (decrease in the number of days needed to reach criterion) ([2]; 1, 10, 100 mg/kg p.o., six aged macaques): Five of the six | days to criterion versus vehicle ([2]; each dose (1, 10, 100 mg/kg p.o.), Bonferroni t-test, p<0.050, old-9 excluded): significant decrease | learning ability and long term memory of normal aged non-human primates ([2]; summary of study): significantly improves

COc1ccc(C2CNC(=O)C2)cc1OC1CCCC1 (centres unmarked) [rolipram]
age-dependent loss of hippocampal-dependent memory and cellular long-term potentiation [3]: ameliorates
